Experiments:
H9c2 cells [1] = assay: Cytotoxicity study in normoxia condition, MTT cell viability assay; assay type: cell-based, rat
Experimental: (§1) Embryonic rat heart derived cell line H9c2 (2-1), shorted in H9c2 cells, was purchased from ATCC (CRL-1446), which is a permanent cell line and derived from embryonic BDIX rat ventricular heart tissue. Dulbecco's Modified Eagle Medium, Fetal Bovine Serum, and Penicillin-Streptomycin-Glutamine, 2.5% Trypsin/EDTA solution, Phosphate-buffered saline from GIBCO® (Invitrogen™) were used.
(§2) H9c2 cells were cultured in DMEM medium supplemented with 10% fetal bovine serum, 1% glutamine, 50 U/ml penicillin and […] streptomycin. The culture atmosphere for H9c2 cells was 95% air with 5% carbon dioxide (CO2) at 37.0° C. The medium was replaced every 2-3 days. A stock of cells was grown in a 100 cm^2 culture dish and split before confluence at a subcultivation ratio of 1:4. Cells used for experiments were seeded at a density of 1.0×10^4 cells/well in a 96-well culture plate, and cells in each well were allowed to grow to 60-80% confluence within 24 h prior to drug treatment.
(§3) The cell viability was measured using the MTT colorimetric assay, which was based on the conversion of MTT to formazan crystals by mitochondrial dehydrogenase. Briefly, H9c2 cells were seeded in 96-well plates at 1×10^4 cells/well and incubated at 37° C. for 48 h. The cells were then treated with DMSO (H/R control), diazoxide (50 μM). Compounds A-G (at two concentrations of 12.5 μM or 25 μM) and incubated under hypoxia condition. The cells without any treatment and incubated under normoxia condition were used as normal control. At the end of the treatments, […] MTT (5 mg/ml) was added for 4 h and then […] MTT buffer (10% SDS solution, pH7.4) was added to each well. After overnight incubation and 30 s vibration, the absorbance was read at 490 nm wavelength. Results were expressed as the ratio of the number of viable cells with treatments relative to that of the normoxia control.
The cell line and reagents used, and cell culture methods, cell viability assay and statistical analysis employed were described in Example 2.
The cells were treated with desired concentrations of compounds A-G for 3 h, then the medium thereof was replaced with DMEM medium with 10% fetal bovine serum, 1% glutamine, 50 U/ml penicillin and […] streptomycin. The culture atmosphere for normaxia condition was 95% air with 5% carbon dioxide (CO2) at 37.0° C. The cells were then cultured in the incubator for designed periods. The cells without any treatment and incubated under normoxia condition were used as positive control.
Results were expressed as the ratio of the number of viable cells with treatments relative to that of the positive control.

H9c2 cells [2] = assay: Hypoxia/reoxygenation (H/R) injury model, MTT cell viability assay; assay type: cell-based, rat; conditions: for order of cardioprotective effects: rank order of the 7 derivative compounds; for order of cardioprotective effects / viability of cardiomyocyte cells after H/R (ratio of viable cells relative to normoxia control) / protective effect compared with the positive control drug: hypoxia/reoxygenation; for viability of cardiomyocyte cells after H/R (ratio of viable cells relative to normoxia control): mean±SEM; for protective effect compared with the positive control drug: vs diazoxide 50 μM
Experimental: as §1, §2
After treatment with desired concentrations of drug for 3 h, the cells were washed twice with Krebs-Ringer Bicarbonate buffer (KRB; 115 mM NaCl, 4.7 mM KCl, 2.5 mM CaCl2, 1.2 mM KH2PO4, 1.2 mM MgSO4, 24 mM NaHCO3, 10 mM HEPES; pH 7.4). Aliquots of KRB supplemented with 0.01% (w/v) BSA were added to the cells immediately prior to hypoxia. A Billups-Rothenberg modular incubator chamber (Billups-Rothenberg, Inc.; DelMar, Calif.) was used to produce an in vitro Hypoxia/Reoxygenation challenge. In essence, cells were placed in the sealed chamber and the chamber was flushed with 100% nitrogen for 5 min at a flow rate of 25 liter/min. After closing all sealable connectors, the chamber was transferred to an incubator and the cells in the chamber were subjected to a period of hypoxia at 37° C. Reoxygenation was initiated by opening the chamber and then replacing the KRB with fresh DMEM medium. The cells were then cultured in the incubator under an atmosphere of 5% (v/v) CO2 in air at 37° C. for designed periods.
as §3
Data were expressed as mean±SEM. One-way ANOVA with multiple comparisons using the Dunnett's Multiple Comparison Test was used to analyze differences between groups. All statistical analysis was performed using Prism 5 for Windows version 5.00 (GraphPad software, Inc., La Jolla, Calif. 92037 USA). Differences were considered significant if p<0.05.

Compound	cytotoxicity under normoxia condition (H9c2 cells [1]; equivalent dosages)	order of cardioprotective effects (H9c2 cells [2])	protective effect compared with the positive control drug (H9c2 cells [2]; 12.5 or 25 μM)	other results
3-O-[β-D-glucopyranosyl(1→2)-β-D-glucopyranosyl]-20(R), 24(S)-epoxydammarane-3β,12β-triol and its 24(R) epimer [Compound E]	no significant cytotoxicity	G>F>C>A>D>B, E		
CC1=NS(=O)(=O)c2cc(Cl)ccc2N1 [Positive 50, diazoxide, reference compound]				viability of cardiomyocyte cells after H/R (ratio of viable cells relative to normoxia control) (H9c2 cells [2]; 50 μM positive control, p<0.001): 61.69±0.37%
3-O-[β-D-glucopyranosyl(1→2)-β-D-glucopyranosyl]-3β,12β,20(S), 24(S)-tetrahydroxydammar-25-ene and its 24(R) epimer [Compound A]	no significant cytotoxicity	G>F>C>A>D>B, E	higher than the positive control drug	cytotoxicity under normoxia condition (H9c2 cells [1]; 12.5 μM, vs untreated control): no statistically significant cytotoxicity; cytotoxicity under normoxia condition (H9c2 cells [1]; 25 μM, vs untreated control): no statistically significant cytotoxicity
3-O-[β-D-glucopyranosyl(1→2)-β-D-glucopyranosyl]-3β,12β,20(R), 25-tetrahydroxydammar-23-ene [Compound D]	no significant cytotoxicity	G>F>C>A>D>B, E	higher than the positive control drug	viability of cardiomyocyte cells after H/R (ratio of viable cells relative to normoxia control) (H9c2 cells [2]; 25 μM, 3 h pretreatment): 61.06±0.30%
3-O-[β-D-glucopyranosyl(1→2)-β-D-glucopyranosyl]-3β,12β,20(S),25-tetra-hydroxydammar-23-ene [Compound B]		G>F>C>A>D>B, E		
CC(C)=CCC[C@](C)(O)[C@H]1CC[C@]2(C)[C@@H]1[C@H](O)C[C@@H]1[C@@]3(C)CC[C@H](O[C@@H]4O[C@H](CO)[C@@H](O)[C@H](O)[C@H]4O[C@@H]4O[C@H](CO)[C@@H](O)[C@H](O)[C@H]4O)C(C)(C)[C@@H]3CC[C@]12C [Rg3, reference compound]				protective effect against I/R injury induced by hypoxia/reoxygenation, compared with H/R control group (H9c2 cells [2]; 12.5 or 25 μM): have protective effect
3-O-[β-D-glucopyranosyl(1→2)-β-D-glucopyranosyl]-3β,12β,20(R), 24(S)-tetrahydroxydammar-25-ene and its 24(R) epimer [Compound C]	no significant cytotoxicity	G>F>C>A>D>B, E	higher than the positive control drug	
